In patent US10717758B2, “D-amino acid compounds for liver disease” (priority 2012, dated 2020):

How the values were obtained:
HCV genotype 1b replicon = assay: HCV replicon assay; type: cell-based; details: Zluc (Huh-7-derived) cells, luciferase reporter, 72 hours; read-out: HCV Replicon EC50
Method: Huh-7-derived cell line (Zluc) that harbors an HCV genotype 1b replicon and a luciferase reporter gene was grown in Dulbecco's Modified Eagle Medium (DMEM) supplemented with 10% fetal bovine serum, 2 mM GlutaMAX, 1% MEM nonessential amino acids, 100 IU/mL penicillin, 100 μg/mL streptomycin, and 0.5 mg/mL Geneticin® (G418). For dose response testing the cells were seeded in 96-well plates at 7.5×10^3 cells per well in a volume of 50 μL, and incubated at 37° C./5% CO2. Drug solutions were made up freshly in Huh-7 media as 2× stocks. Ten additional 5-fold dilutions were prepared from these stocks in DMEM without G418. At least three hours after Zluc cells were seeded, drug treatment was initiated by adding 50 μL of drug dilutions to the plates in duplicate. Final concentrations of drug ranged from 100 μM to […]. Cells were then incubated at 37° C./5% CO2. Alternatively, compounds were tested at two concentrations (1 μM and 10 μM). […] For this, media was removed from the plates via gentle tapping. Fifty microliters of ONE-glo luciferase assay reagent was added to each well. The plates were shaken gently for 3 min at room temperature and luminescence was measured on a Victor^3 V 1420 multilabel counter (Perkin Elmer) with a 1 second read time using a 700 nm cut-off filter. The EC50 values were calculated from dose response curves from the resulting best-fit equations determined by Microsoft Excel and XLfit 4.1 software. When screening at two fixed concentrations, the results were expressed as % inhibition at 1 μM and 10 μM.

Zluc cells = assay: Cytotoxicity evaluation in Zluc cells (CellTiter-Blue); type: cell-based, human; details: read-out: HCV Replicon CC50
Method: For cytotoxicity evaluation, Zluc cells were treated with compound as described herein, and cell viability was monitored using the CellTiter-Blue Cell Viability Assay (Promega) by adding 20 μL of the assay solution to each well. The plates were then incubated at 37° C./5% CO2 for at least 3 hours.

[1] = Plasma nucleoside and liver triphosphate PK after single oral dose (Example 4); type: in vivo, CD-1 mice; details: at 1 μmol/kg, single oral dose 10 mg/kg in PEG 200
Method: Plasma samples were analyzed for nucleoside by LC-MS/MS. The internal standard (IS) was either 2′-MeG-D3 or tiapride. For protein precipitation and extraction, each plasma sample (50 μL) was treated with 500 μL of 0.2% formic acid in acetonitrile and 20 μL of the internal standard working solution. After vortexing and centrifugation, 500 μL of the sample extracts were transferred to a new plate, dried under N2 at ˜28° C. and reconstituted with 75 μL of 0.2% FA in water. The extracts were chromatographed on an Aquasil C18 column using a gradient system of 0.2% formic acid in water and acetonitrile. The analytes were detected and quantified by tandem mass spectrometry in positive ion mode on an MDS Sciex API5000 equipped with a Turbo Ionspray® interface. The calibration range was 0.500 (LLOQ) to 200 ng/mL in mouse plasma.
(§1) Internal standard solution was added to the homogenate followed by neutralization with 20% ammonium hydroxide solution and addition of 500 μL 1% formic acid. The tissue samples were extracted by weak anion exchange solid phase extraction (SPE). Post extraction, the eluates were evaporated under nitrogen, followed by reconstitution before injection onto the LC-MS/MS system.

[2] = Liver triphosphate and plasma prodrug and nucleoside PK after single oral dose (Example 5); type: in vivo, Cynomolgus monkeys; details: oral 10 mg/kg
Method: For each compound, a single oral dose at 10 mg/kg in PEG 200 (dose volume 3 mL/kg) was administered to cynomolgus monkeys. Untreated animals were used for the collection of control liver. Plasma samples were collected at 0.5, 1, 2, 4, 6, 8, 12 and 24 hours for compound 37, diastereomer 2.
Plasma samples were analyzed for the prodrug and nucleoside by LC-MS/MS. For protein precipitation and extraction, each plasma sample (50 μL) was treated with 500 μL of 0.2% formic acid in acetonitrile and 20 μL of an appropriate internal standard working solution. After vortexing and centrifugation, 500 μL of the sample extracts were transferred to a new plate, dried under N2 at ˜28° C. and reconstituted with 75 μL of 0.2% FA in water. The extracts were chromatographed on an Aquasil C18 column using a gradient system of 0.2% formic acid in water and acetonitrile. The analytes were detected and quantified by tandem mass spectrometry in positive ion mode on an MDS Sciex API4000 equipped with a Turbo Ionspray® interface.
as §1, with “Liver samples were analyzed for the relevant nucleoside triphosphate by LC-MS/MS. […] Appropriate internal” for “Internal”

Huh-7 cells = assay: Release of active metabolite in Huh-7 cells; type: in vitro ADME, human
Method: Huh-7 cells were plated in 1 mL culture medium (DMEM, containing glucose, L-glutamine and sodium pyruvate, 10% FBS, 100 IU/mL penicillin, 100 μg/mL streptomycin, 2 mM GlutaMAX, 1% MEM non-essential amino acids) at the concentration 0.8, 0.4 and 0.2 million cells per well on 6 well plates for 24, 48 and 72 hr treatment, respectively. Plated cells were incubated overnight at 37° C. in an incubator.
The following morning test compound was diluted to 20 μM from a stock solution in DMSO in fresh culture medium pre-warmed to 37° C. and 1 mL of the solution/well was added to cells. A final medium volume per well was 2.0 mL, test compound concentration in well was 10 μM and final DMSO concentration was 0.1%.
After 24, 48 or 72 hr, the medium was carefully removed and cell monolayers were washed twice with 2 mL ice-cold PBS per well. Following the last wash, all PBS was carefully removed and 1.0 mL of extraction solution (ice-cold 70% methanol) added. The plate was tightly covered with Parafilm, plastic plate cover and Parafilm again and an intracellular content was extracted at −20° C. for 24 hr.
After 24 hr the extracts were transferred into polypropylene microfuge tubes and dry on a refrigerated centrivap concentrator. Dry residues were reconstituted in 250 μL of HPLC-grade water and centrifuged at 16,000×g for 10 min. Aliquots (100 μL each) of the supernatants were transferred into a 96 well plate and internal standard (4 ng/mL final concentration) was added as the internal standard (IS) for LC-MS/MS analysis.

cathepsin A (CatA) = biological target: T1, cathepsin A (CatA) (Homo sapiens, UniProt P10619); assay: Hydrolysis of prodrugs by Cathepsin A; type: in vitro ADME
T1 sequence (P10619 29-326 limits assumed): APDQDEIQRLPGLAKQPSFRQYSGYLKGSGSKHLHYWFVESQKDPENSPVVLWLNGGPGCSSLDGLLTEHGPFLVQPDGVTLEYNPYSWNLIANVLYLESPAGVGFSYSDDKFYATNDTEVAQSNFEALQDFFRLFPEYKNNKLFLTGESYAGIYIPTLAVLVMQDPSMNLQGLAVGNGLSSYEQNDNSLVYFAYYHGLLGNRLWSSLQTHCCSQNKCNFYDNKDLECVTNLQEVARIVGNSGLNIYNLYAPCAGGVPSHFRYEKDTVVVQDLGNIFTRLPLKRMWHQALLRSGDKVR
T1 sequence (P10619 327-480 limits assumed): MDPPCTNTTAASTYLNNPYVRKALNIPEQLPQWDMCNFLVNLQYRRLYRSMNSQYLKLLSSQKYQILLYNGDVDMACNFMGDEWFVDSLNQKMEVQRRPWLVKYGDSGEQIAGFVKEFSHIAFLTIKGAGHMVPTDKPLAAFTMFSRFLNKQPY
Method: CatA, cathepsin L (CatL) and CES1 were purchased from R & D Systems (Minneapolis, Minn.). Prior to the enzymatic hydrolysis reactions, CatA was activated according to the manufacturer's instruction. Briefly, CatA (0.05 μg/μL) was incubated with CatL (0.005 μg/μL) for 30 min at 37° C. in 25 mM MES pH 6.0 containing 5 mM DTT. The reaction was stopped by addition of the CatL specific inhibitor E64 (10 μM).
The CatA assay was performed at 37° C. The reaction mixture contained 25 mM MES buffer pH 6.0, 100 mM NaCl, 4 mM DTT and 100 μM of the compound. The reaction was started by addition of the activated CatA enzyme to a final concentration of 0.005 μg/μL. […] Reactions were stopped by mixing the sample with an equal volume of ice-cold methanol, and were loaded on a HPLC for analysis.

[3] = biological target: T2, carboxylesterase 1 (CES1) (Homo sapiens, UniProt P23141); assay: Hydrolysis of prodrugs by Carboxylesterase 1; type: in vitro ADME; details: for CES1 hydrolysis: 100 μM compound, 37° C., pH 7.5
T2 construct: purchased R & D Systems (Minneapolis, Minn.)
T2 sequence (P23141 18-567): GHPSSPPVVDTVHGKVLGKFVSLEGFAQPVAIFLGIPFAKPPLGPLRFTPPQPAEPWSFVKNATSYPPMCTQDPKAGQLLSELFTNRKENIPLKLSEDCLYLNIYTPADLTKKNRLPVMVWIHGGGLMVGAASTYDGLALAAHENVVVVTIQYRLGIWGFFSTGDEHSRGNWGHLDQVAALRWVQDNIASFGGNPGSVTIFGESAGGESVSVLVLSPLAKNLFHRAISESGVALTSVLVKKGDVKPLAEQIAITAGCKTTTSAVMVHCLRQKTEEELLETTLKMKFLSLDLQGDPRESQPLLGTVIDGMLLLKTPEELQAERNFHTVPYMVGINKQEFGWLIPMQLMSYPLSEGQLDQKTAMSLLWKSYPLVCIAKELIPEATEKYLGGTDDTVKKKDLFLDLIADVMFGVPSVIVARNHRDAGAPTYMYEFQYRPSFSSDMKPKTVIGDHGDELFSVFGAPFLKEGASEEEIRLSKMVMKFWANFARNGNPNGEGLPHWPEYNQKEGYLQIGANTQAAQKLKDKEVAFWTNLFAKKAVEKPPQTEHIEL
Method: CES1 assay was performed at 37° C. in the reaction mixture containing 50 mM Tris/HCl buffer pH 7.5 and 100 μM of the compound. Reaction was started by addition of the CES1 to the final concentration 0.01 μg/mL. 100 μL aliquots were taken after 0.5 min, 3 hrs and 21 hrs of the incubation and the reaction was stopped by mixing with 100 μl of the ice-cold methanol prior to HPLC analysis.
Samples were analyzed by HPLC using 5 μC-18, 4.6×250 mm Phenomenex® Columbus column (Phenomenex USA, Calif.). The mobile phase consisted of buffer A (25 mM potassium phosphate with 5 mM tetrabutylammonium dihydrogen phosphate pH 6.3) and buffer B (100% methanol).

CCCCOC(=O)[C@@H](C)NP(=O)(OC[C@H]1O[C@@H](n2ccc(=O)[nH]c2=O)[C@](C)(Cl)[C@@H]1O)Oc1ccccc1 (single isomer, unassigned; diastereomer 2) [202i Diastereomer 2]
EC50 (HCV genotype 1b replicon): 0.25 to 1 µM
CC50 (Zluc cells): > 50 µM
Ms Plasma nucleoside AUC [1]: 0.00612 M·s

CC(C)OP1(=O)OC[C@H]2O[C@@H](n3ccc(=O)[nH]c3=O)[C@](C)(Cl)[C@@H]2O1 (single isomer, unassigned; diastereomer 2) [37 Diastereomer 2]
Nucleoside triphosphate in Liver C6 ([2]; 6 hours post dose, normalized to 1 μmol/kg dose): 1500 pmol/g
Nucleoside triphosphate in Liver Tmax [2]: 12 h
Plasma nucleoside Tmax [2]: 4 h
Plasma prodrug Tmax [2]: 4 h
Nucleoside triphosphate in Liver AUC0-24 ([2]; normalized to 1 μmol/kg dose): 29000 pmol·h/g
Nucleoside triphosphate in Liver Cmax ([2]; normalized to 1 μmol/kg dose): 1700 pmol/g
Plasma nucleoside AUC0-24 ([2]; normalized to 1 μmol/kg dose): 0.65 µM·h
Plasma prodrug AUC0-24 ([2]; normalized to 1 μmol/kg dose): 4 µM·h
Cmax ([2]; normalized to 1 μmol/kg dose, read-out: Plasma nucleoside Cmax): 51 nM
Cmax ([2]; normalized to 1 μmol/kg dose, read-out: Plasma prodrug Cmax): 840 nM

C[C@@H](NP(=O)(OC[C@H]1O[C@@H](n2ccc(=O)[nH]c2=O)[C@](C)(Cl)[C@@H]1O)Oc1ccccc1)C(=O)OCc1ccccc1 (single isomer, unassigned) [205i Diastereomer 1]
CC50 (Zluc cells): > 50 µM

CC(C)OC(=O)[C@H](C)NP(=O)(OC[C@H]1O[C@@H](n2ccc(=O)[nH]c2=O)[C@](C)(Cl)[C@@H]1O)Oc1ccccc1 (single isomer, unassigned; diastereomer 1) [40ii Diastereomer 1]
EC50 (HCV genotype 1b replicon): < 0.25 µM
CC50 (Zluc cells): > 50 µM
Huh-7 TP AUC (Huh-7 cells; 10 μM test compound): 4380 pmol.hr/mill cells
Huh-7 TP Cmax (Huh-7 cells; 10 μM test compound): 123 pmol/mill cells
Huh-7 TP (24 hr) (Huh-7 cells; 10 μM test compound, 24 hr): 25
Huh-7 TP (48 hr) (Huh-7 cells; 10 μM test compound, 48 hr): 96
Huh-7 TP (72 hr) (Huh-7 cells; 10 μM test compound, 72 hr): 123
Ms Plasma nucleoside AUC [1]: 0.00349 M·s
Cmax ([1]; read-out: Ms Plasma nucleoside Cmax): 86 nM

CCCCOC(=O)[C@@H](C)NP(=O)(OC[C@H]1O[C@@H](n2ccc(=O)[nH]c2=O)[C@](C)(Cl)[C@@H]1O)Oc1ccccc1 (single isomer, unassigned) [202i Diastereomer 1]
CC50 (Zluc cells): > 50 µM

CC(C)OC(=O)[C@H](C)N[P@](=O)(OC[C@H]1O[C@@H](n2ccc(=O)[nH]c2=O)[C@](C)(F)[C@@H]1O)Oc1ccccc1 (single isomer, unassigned) [GS-7977, reference compound]
Huh-7 AUC0-72 (Huh-7 cells; Table 7): 63555 pmol*hr/10^6cells
Hydrolysis by CatA (cathepsin A (CatA)): hydrolyzed
CatA hydrolysis (cathepsin A (CatA); @ 18 h, 100 μM compound, 37° C., pH 6.0): 100% @
CatA cleavage efficiency relative to the RP diastereoisomer (cathepsin A (CatA); GS-7977 (SP) versus RP diastereoisomer): 10 times
Hydrolysis by CES1 [3]: hydrolyzed
CES1 hydrolysis ([3]; 3 h): 12%/3 h;
CES1 hydrolysis ([3]; 21 h): 15%/21 h

C[C@@H](NP(=O)(OC[C@H]1O[C@@H](n2ccc(=O)[nH]c2=O)[C@](C)(Cl)[C@@H]1O)Oc1ccccc1)C(=O)OCc1ccccc1 (single isomer, unassigned; diastereomer 2) [205i Diastereomer 2]
EC50 (HCV genotype 1b replicon): 0.25 to 1 µM
CC50 (Zluc cells): > 50 µM
Ms Plasma nucleoside AUC [1]: 0.00612 M·s
